Laboratory results: patent US11472832B2, “Withanolides useful for the treatment of neurodegenerative diseases” (priority 2013, dated 2022)
Like-named read-outs stand apart in the source and are kept apart here.

Key:
NF-κB [1] = test: TNF-α-induced signalling activity in HEK293-NF-κB-luciferase reporter cell line; type: cell-based; conditions: HEK-293 cells; for IC50: TNF-alpha 40 ng/ml, 4 h, luciferase; for inhibition of NF-κB expression: TNF-alpha, 0.05 to 5 uM, FIG. 3
Procedure: Ten thousand hygromycin B-resistant HEK-293 cells were seeded per well in a 96-well plate (Corning, New-York) and allowed to adhere overnight. The next morning, the culture medium (DMEM+10% FBS) was removed and […] of fresh medium (DMEM without FBS) added to each well. […] Human recombinant TNF-alpha (R&D Systems, Minneapolis) was added one hour later at a final concentration of 40 ng/ml. Four hours later, the HEK-293 cells were rinsed with 1×PBS prior to the luciferase assay, which was performed according to the manufacturer's instructions (Bright-Glo™ luciferase assay system, Promega, Wis.).

NF-κB [2] = test: NF-κB luciferase reporter activity in BV2 microglial cells stimulated with LPS; type: cell-based; conditions: BV-2 cells, LPS 100 ng/ml, 4 h
Procedure: An NF-κB specific luciferase reporter system in BV-2 microglial cells was first established. This cell line was generated by stable transfection of BV-2 cells with stable insertion of a luciferase reporter 4 kBwt luciferase plasmid and subsequent selection with hygomycin. LPS was used to stimulate NF-κB activity in these cells. Twenty-five thousand hygromycin B-resistant BV-2 cells were seeded per well in 24-well dishes and allowed to adhere overnight. The next morning, the culture medium (DMEM+10% FBS) was removed and 1 ml of fresh medium (DMEM without FBS) added to each well. The stock solutions of withanolides (2 mg/ml in DMSO) were diluted in 1×PBS to various concentration (0.05 to 5 uM) and added to the wells. LPS was added one hour later at a final concentration of 100 ng/ml. Four hours later, the BV-2 cells were rinsed with 1×PBS prior to proceeding with the luciferase assay that was performed according to the manufacturer's instructions (Bright-Glo™ luciferase assay system, Promega, Wis.).

[3] = test system: LPS-induced astrogliosis (GFAP promoter luciferase reporter); conditions: GFAP-luc mice, LPS inhaled, 4 mg/kg i.p. 2 h after LPS and 2 h before imaging, imaging 24 h after LPS
Procedure: In vivo bioluminescence imaging was performed to asses the inflammatory response in the cranial region.
GFAP-luc transgenic mice were used to test in vivo the efficacy of these analogs. In these transgenic mice, the firefly luciferase reporter gene is under the control of a 12 kb DNA fragment of the glial fibrillary acidic protein (GFAP) promoter (Caliper Life Sciences). The luciferase reporter is inducible following LPS administration resulting in GFAP transcriptional regulation. If the administration of test compounds following the injection of LPS decreases LPS-induced astrogliosis in GFAP-luc mice, this is visualized as a reduced bioluminescent signal upon imaging.
Transgenic mice under anesthesia were induced to inhale either 5 ul of a solution of LPS (1 mg/ml in 0.9% saline) or a solution of 0.9% saline alone followed 2 h later by an intraperitoneal (i.p.) injection of 0.5 ml of the test compounds (10% dilution in 0.9% saline) at a final concentration of 4 mg/kg. The following day, 2 h before imaging (24 h after the administration of the LPS solution), the transgenic mice were again injected with the withanolides as previously. Twenty minutes prior to imaging, the mice received an i.p. injection of the luciferase substrate D-luciferin (150 mg/kg). D-luciferin was dissolved in 0.9% saline to a final concentration of 20 mg/ml. […]

C57BL/6 female mice = conditions: i.p.; for clinical observations post-dosing: 65 mg/kg; for safety profile compared with WA: 20 to 65 mg/kg
[4] = test system: TDP-43 A315T transgenic mice; conditions: 5 mg/kg i.p. every 2 days for 15 weeks
Procedure: The TDP-43 A315T mouse model for ALS is fully described in Swamp, V et al., Brain 134: 2610-2626 2011.
Male and female TDP-43 A315T mice of approximately 9 months and 25-55 gm were included in the study, and were randomly assigned to three groups, as follows:
Group 2 (n=7) (the control group) received vehicle (2% polysorbate [Tween-80]/5% DMSO/93% saline); and
The injection volume at 12.5 mL/kg was based on the body weight of each individual animal at the start of the study.
Accelerating rotarod (as described in Gros-Louis, F., et al. Hum Mol Genet 17, 2691-2702 (2008)) was performed prior to first dosing and at weekly interval during the study. Testing was performed at 4-rpm speed with 0.25 rpm/s acceleration. Each mouse was subjected to three trials per session. The number of seconds each mouse remained on the rotarod apparatus for each trial was recorded.

Compound | IC50 (NF-κB [1]; Homo sapiens, HEK293) [nM] | IC50 (NF-κB [2]; Mus musculus) [nM] | IC50 (NF-κB [1]) [nM] | inhibition of NF-κB expression (NF-κB [1]) | bioluminescent signal in brain (astrogliosis) compared to saline-DMSO [3] | mortality (C57BL/6 female mice; 55 mg/kg) | clinical observations post-dosing (C57BL/6 female mice) | mortality (C57BL/6 female mice; 65 mg/kg (highest dose tested)) | safety profile compared with WA (C57BL/6 female mice) | rotarod performance over the 15 week period [4] | IC50 (NF-κB [2]) [nM]
CC1=C(CO)C(=O)O[C@@H]([C@@H](C)[C@H]2CC[C@H]3[C@@H]4C[C@H]5O[C@]56[C@@H](O)C=CC(=O)[C@]6(C)[C@H]4CC[C@]23C)C1 [WA, Withaferin A, reference compound] | 340 | 500 |  |  |  |  |  |  |  |  | 
COCC1=C(C)C[C@H]([C@@H](C)[C@H]2CC[C@H]3[C@@H]4C[C@H]5O[C@]56[C@@H](O)C=CC(=O)[C@]6(C)[C@H]4CC[C@]23C)OC1=O [27-O-methyl WA, 27-O-methylwithaferin A] |  |  | 260 | inhibited NF-κB expression | significant decrease | no mortality | some weakness and a decrease in activity | no mortality | much better safety profile than WA | improved | 710
COCC1=C(C)C[C@H]([C@@H](C)[C@H]2CC[C@H]3[C@@H]4C[C@H]5O[C@]56[C@@H](OC)C=CC(=O)[C@]6(C)[C@H]4CC[C@]23C)OC1=O [4,27-O-dimethyl WA, 4,27-O-dimethylwithaferin A] |  |  | 450 | inhibited NF-κB expression |  |  |  |  |  |  | 800
CO[C@H]1C=CC(=O)[C@]2(C)[C@H]3CC[C@]4(C)[C@@H]([C@H](C)[C@H]5CC(C)=C(CO)C(=O)O5)CC[C@H]4[C@@H]3C[C@H]3O[C@]132 [4-O-methyl WA, 4-O-methylwithaferin A] |  |  | 320 | inhibited NF-κB expression | significant decrease | no mortality | some weakness and a decrease in activity | no mortality | much better safety profile than WA | improved | 970
